According to ChEMBL document CHEMBL3507680, “University of Dundee, Gates Library screen for HepG2 cell viability”:

Experiment: Human HepG2 cell viability assay in 384 well format
Type: toxicity, cell-based
Set-up: dose 125 nL, time 70.5 hour; cytotoxicity at 70.5 h: concentration not given beside the values
Conditions: HepG2 cells, read-out: Inhibition

Structure (SMILES)	cytotoxicity at 70.5 h [%]
C[C@H]1CN(c2ccccn2)C[C@@]12CCN(c1cccnc1)C2=O	-2.67
CC(=O)Nc1ccc(OCc2noc(C(=O)N3CCCCCC3)n2)cc1	-21.4
CN(C)c1nc(-c2ccncc2)nc2c1CCN(C(=O)[C@H](N)CO)C2	-6.08
CC(CCc1ccc(O)cc1)NC1CCN(C(=O)C(C)C)CC1 (stereo unspecified)	-11.4
CCn1ncnc1C(C)NC(=O)C1CCN(C(C)C)CC1 (stereo unspecified)	-8.56
O=c1cc(C2CCNCC2)nc(CCCc2ccccc2)[nH]1	-3.39
CCC(C)Oc1ccc(CNCCNC(C)=O)cc1OC (stereo unspecified)	-6.94
COC1CN(C(=O)Nc2ccccc2)CCC(=O)N(C)c2ccccc21 (stereo unspecified)	-0.759
CCc1cnc(N2CC[C@@H]3CN(CCC(C)C)S(=O)(=O)[C@@H]3CC2)nc1	-4.3
COc1cc2c(cc1-c1nc3c(cnn3C(C)C)[nH]1)OCO2	-0.0981
CCc1ccc(CNC(=O)Cn2ccc3sccc3c2=O)cc1	2.36
CC(=O)Nn1c(C)cc(CN2CCC(C(=O)N3CCCC3)CC2)c1C	-2.42
COc1cc(S(=O)(=O)N2CCc3ccc(Cl)cc32)cc(C(=O)O)c1OC	-8.43
CN1CCN(c2cc(CNC(=O)c3ccc(=O)[nH]n3)ccn2)CC1	-21.2
CNS(=O)(=O)c1ccc(CNC(=O)NCC2CCCO2)cc1 (stereo unspecified)	-20.2
CC(C)NC(=O)C1CCC2(CCN(c3ncccn3)CC2)CO1 (stereo unspecified)	-9.99
O=C(CCN1CCOCC1)NC1CCCN(CC2CCCCC2)C1 (stereo unspecified)	-3.9
CCC(=O)NCCc1cc(N2CCN(C(C)=O)CC2)nc(C2CC2)n1	-1.36
Cc1occc1C(=O)NCC(=O)NCCCOc1ccc(F)cc1	-17.7
Cn1cc(-c2ccnc(NCC3CC3)n2)cn1	-10.3
CCN(CCO)C(=O)C1CCC(=O)N(Cc2cccc(OC)c2)C1 (stereo unspecified)	-13.2

Structure (SMILES)	cytotoxicity at 70.5 h [%]
O=C(CCSc1ccccc1)NCCn1nc2ccccn2c1=O	-8.89
O=C(c1cnc(-c2noc3cc(N4CCCC4)ccc23)s1)N1CCCC1	-4.44
Cc1ccc(CN2CCOCC2)cc1NC(=O)c1ccsc1	-9.12
Cc1cc(C)nc(N2CCC(c3cncc(-n4ccnc4)n3)CC2)n1	-6.63
Cc1noc(CCCc2nc(C3CCOC3)no2)n1 (stereo unspecified)	-18.7
CNC(=O)Cc1n[nH]c(-c2cncc(Br)c2)n1	27.1
COCCn1cncc1Cn1cccc(C(F)(F)F)c1=O	6.51
O=C(NCc1ccco1)N1CCCCC1c1nc(C2CC2)no1 (stereo unspecified)	-7.19
CC(C)c1nn(C)c(N2CCOCC2)c1CNCC(=O)N(C)C	-6.07
COc1cccc(CCNC(=O)CN2CCCC2c2noc(C)n2)c1 (stereo unspecified)	-6.83
Cc1csc(C(C)(C)NCCOc2ccc(CC#N)cc2)n1	-0.219
CC(=O)c1c(F)cccc1NC1CCN(S(=O)(=O)C2CC2)CC1	-6.69
CN(CCCc1cc(-c2cccc(F)c2)n[nH]1)C(=O)Cn1cncn1	22.1
CCN1CC2(CCN(C(=O)c3nc4cc(C)ccn4c3F)CC2)CC1=O	24.7
CC(NS(C)(=O)=O)C(=O)N(C)Cc1cnn(-c2ccc(F)cc2)c1 (stereo unspecified)	3.12
Cc1ccccc1CN(CCN(C)C)C(=O)c1ccc2nccn2c1	0.498
CCc1csc(C2CCCN(C(=O)c3ccccn3)C2)n1 (stereo unspecified)	-7.06
Cc1cc(C(=O)NC(C)C(=O)Nc2cc(F)ccc2C)nc(C)n1 (stereo unspecified)	5.43
CSCC(=O)N1CCCC(c2cc(C)[nH]n2)C1 (stereo unspecified)	-12
Cc1cccc(=O)n1CCCNc1nc(N(C)C)nc2c1CCNCC2	-3.24
CCc1nc(C2CCCN2C(=O)CCCn2cccn2)no1 (stereo unspecified)	-7.2

Structure (SMILES)	cytotoxicity at 70.5 h [%]
CCn1nc(C)c2c1cnn2CC(=O)N1CCN(C)CC1	-1.92
CN(C)S(=O)(=O)c1cccc(NC(=O)Cc2ccon2)c1	-4.37
CN(C)C1CCN(C(=O)CCc2cc(Br)cs2)CC1	-0.796
CC(=O)c1cc(CC(=O)NCc2cccc(F)c2F)cs1	-8.12
c1nc2c(c(NC3COC4(CCCC4)C3)n1)CCNCC2 (stereo unspecified)	-5.17
Cc1cnn(CC2CN(CC(=O)NCc3ccccn3)CCO2)c1 (stereo unspecified)	14.8
COc1cc(C(=O)N(Cc2ccco2)C2CC2)cc(OC)c1OC	23.7
Cc1cccc2nc(CN3CCCC3Cn3cncn3)cn12 (stereo unspecified)	-17
Cc1noc(C(C)N2CCN(Cc3nnc(C4CC4)o3)CC2)n1 (stereo unspecified)	-3.98
CC(C)c1noc(CCCC(=O)N2CCN(Cc3ccccn3)CC2)n1	-11.6
CC(C)(CNC(=O)c1ccco1)NC(=O)OC(C)(C)C	-12.7
CCS(=O)(=O)N1CC(=O)N(Cc2ccccc2OC)CC(O)C1 (stereo unspecified)	17.6
COc1nc2c(cc1C(=O)N1C[C@@H](N)C[C@H]1C(=O)NC(C)C)CCC2	-2.39
COCCN1C[C@@H]2CN(Cc3cccc(C)n3)C[C@@H]2C1=O	-13.6
Cc1nc2cc(C3CCN(C(=O)c4ccccn4)CC3)nn2c(O)c1C	44.6
COc1ccc(CN2CCO[C@@H]3C[C@@H](C(=O)NC(C)C)C[C@H]32)cc1	-5.46
CCCS(=O)(=O)N1CCN(Cc2ccco2)CC1	-7.67
CCN(C)c1ncnc2c1CCN(C(=O)c1cnccn1)CC2	-12.8
CC[C@H]1CN(C(=O)c2cccc(-n3cnnc3)n2)CC[C@@]1(C)O	19.7
O=S1(=O)COCCN1Cc1ccc(Cl)c(F)c1	-6.23
CCNC(=O)c1cc(OC)c(OC)cc1N(C)S(C)(=O)=O	-8.66

Structure (SMILES)	cytotoxicity at 70.5 h [%]
Cc1cc(NC(=O)CN2CCCC(Cn3cncn3)C2)on1 (stereo unspecified)	-3
Cc1nccc(CC2COCCN(c3cnccn3)C2)n1 (stereo unspecified)	22.7
CCOc1ccc(-c2cc(=O)n3c(n2)CCCCC3)cc1	-5.56
COc1ccc(C(=O)N2CCC(Oc3ccccc3C)(C(=O)O)CC2)o1	-3.87
Cn1ccc(C(=O)N2CCN(c3ccccn3)CC2)cc1=O	-1.81
Cc1ccc(NC2CCN(C(=O)c3ccc(F)c(C)c3)CC2)nn1	14.1
CC(C)C(CCO)NC(=O)Nc1ccc(-c2csnn2)cc1 (stereo unspecified)	-5.31
O=C1NCCCCC1NC(=O)C1(Oc2ccc(Cl)cc2)CCNCC1 (stereo unspecified)	-7.72
Cc1nn(C)cc1NC(=O)CN1CCN(C2CCCC2)C(=O)C1	-6.18
Cc1ccc(Cl)cc1N1CCC(CNC(=O)CC(F)(F)F)C1 (stereo unspecified)	1.39
CCCc1n[nH]c(C2CN(C(=O)CCn3cc(C)cn3)CCO2)n1 (stereo unspecified)	4.48
CCN1CC(C(=O)N2CC(Oc3ccccc3Cl)C2)CC1=O (stereo unspecified)	-1.71
O=C(CSc1ccccc1F)NS(=O)(=O)c1ccc2c(c1)OCCO2	-0.308
Cc1ccc(S(C)(=O)=O)cc1C(=O)NS(C)(=O)=O	-7.69
CC(C)NC(=O)Cn1cc(-c2ccccc2)cn1	1.95
Cc1ncc(CC(=O)N2C[C@@H]3CC[C@H](C2)N(CC2CCC2)C3)c(=O)[nH]1	-17.8
Cc1ncsc1-c1nnc(C2CCN(Cc3cccc(F)c3F)CC2)o1	38.7
COc1cc(CN2CCCCCC2c2cccs2)cc(OC)c1OC (stereo unspecified)	-9.84
